pEC50: −log10 of the molar value.
What was measured:
[1] = system: Human immunodeficiency virus 1; assay: Antiviral activity against HIV-1 NL4-3 infected in human MT2 cells assessed as reduction in viral replication assessed as inhibition of viral growth incubated for 72 hrs by ELISA; format: functional, organism-based; settings: Human immunodeficiency virus 1, NL4-3, MT2, 72 h
[2] = Selectivity index, ratio of CC50 for human MT4 cells to EC50 for antiviral activity against HIV1 infected in human MT4 cells; format: toxicity, cell-based; settings: read-out: Ratio CC50/EC50
[3] = system: Human immunodeficiency virus 1; assay: Antiviral activity against HIV1 IIIB infected in human MT4 cells assessed as reduction in virus-induced cytopathic effect incubated for 4 days by MTT assay; format: functional, organism-based; settings: Human immunodeficiency virus 1, IIIB, MT4, 96 h
[4] = system: Human immunodeficiency virus 1; assay: Antiviral activity against HIV-1 IIIB infected in human C8166 cells assessed as reduction in virus -induced cytopathic effect measured after 48 hrs by CellTiter-Glo Luminescent cell viability assay; format: functional, organism-based; settings: Human immunodeficiency virus 1, IIIB, C8166, 48 h
[5] = system: C8166; assay: Cytotoxicity against human C8166 cells assessed as reduction in cell viability; format: functional
[6] = Selectivity index, ratio of CC50 for cytotoxicity against human MT2 cells to EC50 for antiviral activity against HIV-1 IIIB infected in human MT2 cells; format: toxicity, cell-based; settings: read-out: Ratio CC50/EC50
[7] = Cytotoxicity against african green monkey Vero cells assessed as reduction in cell viability measured after 72 hrs by MTT assay; format: toxicity, cell-based; settings: chlorocebus sabaeus
[8] = system: Human immunodeficiency virus 1; assay: Antiviral activity against HIV-1 IIIB infected in human C8166 cells; format: functional, organism-based; settings: Human immunodeficiency virus 1, IIIB
[9] = system: Human immunodeficiency virus 2; assay: Antiviral activity against HIV-2 ROD infected in human MT4 cells assessed as virus-induced cytopathic effect incubated for 5 days by MTT assay; format: functional, organism-based; settings: Human immunodeficiency virus 2, ROD, MT4, 120 h
[10] = system: MT4; assay: Cytotoxicity against human MT4 cells assessed as reduction in cell growth incubated for 3 days by CellTiter-Glo luminescent assay; format: functional; settings: MT4, 72 h, time 3 day
[11] = system: Human immunodeficiency virus 1; assay: Antiviral activity against wild type HIV-1 NL4-3 infected in human MT4 cells assessed as reduction in viral replication measured for 72 hrs by ELISA analysis; format: functional, organism-based; settings: Human immunodeficiency virus 1, NL4-3, MT4, 72 h
[12] = system: Human immunodeficiency virus 1; assay: Antiviral activity against HIV-1 NL4-3 harboring infected K103N mutant infected in human MT4 cells assessed as reduction in viral replication; format: functional, organism-based; settings: Human immunodeficiency virus 1, NL4-3, MT4
[13] = system: Human immunodeficiency virus 1; assay: Antiviral activity against wild-type HIV-1 IIIB infected in human MT4 cells assessed as reduction in virus-induced cytopathic effect incubated for 5 days by MTT assay; format: functional, organism-based; settings: Human immunodeficiency virus 1, IIIB, MT4, 120 h
[14] = system: MT4; assay: Cytotoxicity against human MT4 cells assessed as reduction in cell growth after 5 days by MTT assay; format: functional; settings: MT4, 120 h, time 5 day
[15] = system: MT4; assay: Cytotoxicity against human MT4 cells; format: functional
[16] = system: Human immunodeficiency virus 1; assay: Antiviral activity against wild type HIV-1 NL4-3 infected in human MT4 cells assessed as reduction in viral replication; format: functional, organism-based; settings: Human immunodeficiency virus 1, NL4-3, MT4; read-out: EC50
[17] = system: Human immunodeficiency virus 1; assay: Antiviral activity against HIV-1 NL4-3 harboring infected Y181C mutant infected in human MT4 cells assessed as reduction in viral replication; format: functional, organism-based; settings: Human immunodeficiency virus 1, NL4-3, MT4

For `CCC(C)Sc1nc(O)c(C)c(Cc2ccccc2)n1` (configuration not stated), the pEC50 [1] was 6.70.
Compound `Cc1c(O)nc(SC2CCCCC2)nc1Cc1ccccc1` has a selectivity ratio [2] of over 530 and a pEC50 [3] of 6.22.
`CCC(C)Sc1nc(O)cc(Cc2ccccc2)n1` (configuration not stated) showed a pEC50 [1] of 7.10.
Compound `CCC(C)Sc1nc(O)cc(Cc2cccc(C)c2)n1` (configuration not stated) has a selectivity ratio [2] of over 578 and a pEC50 [3] of 6.22.
`Cc1c(O)nc(SC2CCCC2)nc1Cc1ccccc1` showed a selectivity ratio [2] of over 555 and a pEC50 [3] of 6.10.
Work on `Oc1cc(Cc2ccccc2)nc(SC2CCCCC2)n1` yielded a selectivity ratio [2] of over 412 and a pEC50 [3] of 6.10.
Work on `CCC(C)Sc1nc(O)cc(Cc2c(Cl)cccc2Cl)n1` (configuration not stated) yielded a pEC50 [4] of 6.85, a CC50 [5] of over 200000 nM and a selectivity ratio [6] of over 1430. The CC50 at 72 h [7] was over 200000 nM.
`CCC(C)Sc1nc(O)c(C)c(Cc2c(Cl)cccc2Cl)n1` (configuration not stated) showed a pEC50 [4] of 7.30, a CC50 [5] of over 200000 nM and a selectivity ratio [6] of over 4000. For the same compound, the CC50 at 72 h [7] was over 200000 nM.
In the case of `CCc1c(Cc2ccccc2)nc(SCC(=O)c2ccc(OC)cc2)[nH]c1=O`, the pEC50 [8] was 7.35, the pEC50 [9] was 4.72 and the CC50 [10] was 178000 nM.
`COc1ccc(C(=O)CSc2nc(Cc3ccccc3)c(C(C)C)c(=O)[nH]2)cc1` gave a pEC50 [8] of 7.52, a pEC50 [9] of 4.87 and a CC50 [10] of 203000 nM.
In the case of `COc1ccc(/C=C/CSc2nc(C(C)c3c(F)cccc3F)c(C)c(=O)[nH]2)cc1` (configuration not stated), the pEC50 [11] was 8.70.
Work on `CCc1c(C(C)c2c(F)cccc2F)nc(SC/C=C/c2ccc(OC)cc2)[nH]c1=O` (configuration not stated) yielded a pEC50 [11] of 8.70.
With `CCc1c(C(C)c2c(F)cccc2F)nc(SC/C=C/c2ccc([N+](=O)[O-])cc2)[nH]c1=O` (configuration not stated) the pEC50 [11] was 8.40.
In the case of `COc1ccc(CSc2nc(C(C)c3c(Cl)cccc3Cl)c(C)c(=O)[nH]2)cc1` (configuration not stated), the pEC50 [11] was 9.00 and the pEC50 [12] was 5.24.
In the case of `COc1ccc(CSc2nc(C(C)c3c(F)cccc3F)c(C)c(=O)[nH]2)cc1` (configuration not stated), the pEC50 [11] was 8.70.
Work on `Cc1c(C(C)c2c(F)cccc2F)nc(SCc2ccc([N+](=O)[O-])cc2)[nH]c1=O` (configuration not stated) yielded a pEC50 [11] of 8.52 and a pEC50 [12] of 6.19.
For `Cc1c(O)nc(SCC(C)C)nc1Cc1ccccc1`, the selectivity ratio [2] was 162 and the pEC50 [3] was 6.10.
`CSCSc1nc(O)c(C)c(Cc2ccccc2)n1` gave a pEC50 [1] of 5.92.
With `Cc1cccc(Cc2nc(SC3CCCC3)nc(O)c2C)c1` the selectivity ratio [2] was over 530 and the pEC50 [3] was 6.22.
In the case of `CSCSc1nc(O)c(C(C)C)c(Cc2ccccc2)n1`, the pEC50 [1] was 7.40.
`CCc1c(O)nc(SCSC)nc1Cc1ccccc1` showed a pEC50 [1] of 6.10.
Compound `Cc1c(C(C)c2c(F)cccc2F)nc(SCc2ccc(C#N)cc2)[nH]c1=O` (configuration not stated) has a pEC50 [11] of 8.15.
`Cc1c(C(C)c2c(F)cccc2F)nc(NC(C)C)[nH]c1=O` (configuration not stated) gave a pEC50 [13] of 7.70 and a CC50 [14] of over 200000 nM.
`Cc1c(Cc2c(Cl)cccc2Cl)nc(SCc2cn(Cc3ccc(S(N)(=O)=O)cc3)nn2)[nH]c1=O` showed a CC50 [15] of 95500 nM.
`Cc1c(Cc2c(Cl)cccc2Cl)nc(SCC(=O)Nc2ccc(F)c(F)c2)[nH]c1=O` showed a selectivity ratio [2] of over 387, a pEC50 [8] of 6.16 and a CC50 [10] of over 265000 nM.
`Cc1c(Cc2c(Cl)cccc2Cl)nc(SCC(=O)Nc2ccc(Br)cc2)[nH]c1=O` showed a selectivity ratio [2] of over 1330, a pEC50 [8] of 6.74 and a CC50 [10] of over 243000 nM.
`Cc1c(Cc2c(Cl)cccc2Cl)nc(SCC(=O)Nc2ccc(Cl)cc2)[nH]c1=O` gave a selectivity ratio [2] of over 836, a pEC50 [8] of 6.49 and a CC50 [10] of over 266000 nM.
Compound `Cc1c(Cc2c(Cl)cccc2Cl)nc(SCC(=O)Nc2ccc([N+](=O)[O-])cc2)[nH]c1=O` has a selectivity ratio [2] of 264, a pEC50 [8] of 6.00 and a CC50 [10] of 45800 nM.
In the case of `CC(C)CCSc1nc(Cc2c(F)cccc2I)cc(=O)[nH]1`, the pEC50 [4] was 7.30, the CC50 [5] was over 200000 nM and the selectivity ratio [6] was over 4000. The CC50 at 72 h [7] was over 200000 nM.
Compound `CCC(C)Sc1nc(Cc2c(F)cccc2I)cc(=O)[nH]1` (configuration not stated) has a pEC50 [4] of 7.30, a CC50 [5] of over 200000 nM and a selectivity ratio [6] of over 4000. For the same compound, the CC50 at 72 h [7] was over 200000 nM.
`C#CCOC(=O)[C@H](C)NP(=O)(Oc1ccccc1)Oc1nc(N(C)C)nc(C(C)c2c(F)cccc2F)c1C` (some centres not stated) showed a pEC50 [16] of 8.52 and a pEC50 [17] of 6.30.
For `CCOC(=O)[C@H](C)NP(=O)(Oc1ccccc1)Oc1nc(N(C)C)nc(C(C)c2c(F)cccc2F)c1C` (some centres not stated), the pEC50 [16] was 8.22 and the pEC50 [17] was 6.00.

Reference: ChEMBL document CHEMBL6115028, “An Amazing 30-Year Journey around the DABO Family: A Medicinal Chemistry Lesson on a Versatile Class of Non-nucleoside HIV-1 Reverse Transcriptase Inhibitors” (J Med Chem, 2025)
